Measured values reported in patent EP0765662A1, “HIV GROWTH INHIBITORY COMPOSITION” (Kochi, Mutsuyuki, priority 1994, dated 1995).
Where a name gives a salt, the structure may show the parent alone.

What was measured:
[1] = test system: ICR strain mice; assay: Evaluation of toxicity (intravenous, mice); format: in vivo; conditions: intravenously, 1000 mg per kg body weight, male, 5 mice in each group
Method: SBA in the form of a solution in a physiological saline (containing […]) was administered intravenously to ICR strain mice (5 week-aged, male, 5 mice in each group) at a dosage of 1000 mg per kg of the body weight of mice tested.

[2] = Cytotoxicity of SBA, trypan blue dye-exclusion, U1 cells; format: cell-based; conditions: human, read-out: Rate of survival of the cells (%)
Text: (§1) It is known that stimulation of HIV gene by TPA and tumor necrosis factor (TNF) can activate the HIV gene which is latent as the HIV-provirus within the T-cells as infected with HIV and said stimulation can thus strongly induce the progresses of sprouting and release of the viral particles of HIV. It is considered that said activation of the HIV gene for the occurrence or developement of HIV virus would be caused by such an oxidation stress which is brought about within the host cells by any stimulation given from outside the host cells as above-mentioned. Further, such discoveries and observations have been reported that NFkB, which is a nuclear factor wthin the cells, can play important part in the proliferation of HIV virus, and that the oxidation-reduction status of the NFkB is important for the activation of this factor NFkB, and so on. […] (a) Test of examining cytotoxicity of SBA against various kinds of T-cells A3.01 cells (HAT-susceptible CEM cell strain), A3.01 cells as infected with HIV, and the above-mentioned U1 cells were cultivated, respectively, in an improved RPM1-1640 media containing SBA added at different concentrations. After the cultivation, the number of the cells under test which still survived was determined under a polarizing microscope by a trypan blue dye-exclusion method.

[3] = Cytotoxicity of SBA, trypan blue dye-exclusion, A3.01 cells; format: cell-based; conditions: human, read-out: Rate of survival of the cells (%)
Text: as §1

[4] = test system: HIV; assay: HIV-p24 antigen in culture supernatant of HIV-infected mitogen-derived blast cells of PBMC; format: cell-based; conditions: for Amount of HIV-p24 antigen: PHA-activated PBMC blast cells, culture supernatant
Method: The cytotoxicity of SBA against the A3.01 cells, at a high SBA concentration of 1000 µg of SBA/ml, was such that the rate of survival of said cells was about 70%. The above results of testing the cytotoxicity of SBA indicate that the cytotoxicity of SBA against the above various cells is fairly low. On the other hand, with the HIV-infected A3.01 cells, it is seen that the presence of SBA at concentrations in a range of from 500 to 800 µg of SBA/ml gives the rate of survival of the HIV-infected A3.01 cells at a level as low as 3-24%. […] (b) Tests of examining the inhibitory activities of SBA against infestion of HIV to mitogen-derived blast cells of human periphery blood monocytic cell (PBMC) and against proliferation of HIV in the HIV-infected blast cells of PMBC as well as against replication of the viral particles of HIV in the HIV-infected blast cells of PBMC, where HIV was made to infest the blast cells of PBMC of which the blastogenesis has been induced by a mitogen. Such blast cells of PBMC, which were blastogenetically transformed by activation with PHA […] as a mitogen, were cultivated and then made to be infested with HIV either by inoculation of HIV or by inoculation of HIV which had been pretreated with SBA. The HIV-infected cells so obtained continued further to be incubated in the culture media containing different concentrations of SBA. Then, the supernatant of the resulting cultures was separated, and the amount of the viral particles of HIV as released in the supernatant so obtained was measured. This measurement of the released amount of the viral particles of HIV was made by determining the amount of HIV-p24 antigen, i.e. a structural protein of HIV, existing in the supernatant, as a substitute index which can represent the amount of the viral particles of HIV so released in said supernatant.

O=C1O[C@H]([C@@H]2COC(c3ccccc3)O2)C(O)=C1O (stereo partly drawn) [SBA, 5,6-O-benzylidene-L-ascorbic acid mono-sodium salt]
mortality [1]: None of the mice thus treated died | viability ([2]; SBA 100 µg/ml): 90% | viability ([2]; SBA 500 µg/ml): 100% | viability ([2]; SBA 800 µg/ml): 83% | viability ([2]; SBA 1000 µg/ml): 92% | viability ([3]; SBA 100 µg/ml): 97% | viability ([3]; SBA 1000 µg/ml): ~70% | inhibition of the replication of the viral particles of HIV (in words) ([4]; PBMC blast cells infected with the SBA-pretreated HIV, cultivated in the presence of SBA): no appreciable effect of SBA to inhibit the replication of the viral particles of HIV can be observed | Amount of HIV-p24 antigen ([4]; SBA 10 µg/ml, cells as infected with HIV): 1500 pg/mL | Amount of HIV-p24 antigen ([4]; SBA 10 µg/ml, cells as infected with the SBA-pretreated HIV): 1240 pg/mL | Amount of HIV-p24 antigen ([4]; SBA 50 µg/ml, cells as infected with HIV): 1400 pg/mL | Amount of HIV-p24 antigen ([4]; SBA 50 µg/ml, cells as infected with the SBA-pretreated HIV): 1520 pg/mL | inhibition of the production of the HIV antigen (in words) ([4]; SBA 100 µg/ml, PHA-activated PBMC blast cells infested with HIV): exhibited an effective activity inhibitory to the production of the HIV antigen | Amount of HIV-p24 antigen ([4]; SBA 100 µg/ml, cells as infected with HIV): 380 pg/mL | Amount of HIV-p24 antigen ([4]; SBA 100 µg/ml, cells as infected with the SBA-pretreated HIV): 1430 pg/mL
